{"source": "ChEMBL document CHEMBL5523718", "about": "“Design, synthesis, molecular modeling, in vitro and in vivo biological evaluation of potent anthranilamide derivatives as dual P-glycoprotein and CYP3A4 inhibitors” (Eur J Med Chem, 2024)", "key": {"Cytochrome P450 2C19": {"target": "Cytochrome P450 2C19 (Homo sapiens, UniProt P33261)", "sequence (P33261 whole entry)": "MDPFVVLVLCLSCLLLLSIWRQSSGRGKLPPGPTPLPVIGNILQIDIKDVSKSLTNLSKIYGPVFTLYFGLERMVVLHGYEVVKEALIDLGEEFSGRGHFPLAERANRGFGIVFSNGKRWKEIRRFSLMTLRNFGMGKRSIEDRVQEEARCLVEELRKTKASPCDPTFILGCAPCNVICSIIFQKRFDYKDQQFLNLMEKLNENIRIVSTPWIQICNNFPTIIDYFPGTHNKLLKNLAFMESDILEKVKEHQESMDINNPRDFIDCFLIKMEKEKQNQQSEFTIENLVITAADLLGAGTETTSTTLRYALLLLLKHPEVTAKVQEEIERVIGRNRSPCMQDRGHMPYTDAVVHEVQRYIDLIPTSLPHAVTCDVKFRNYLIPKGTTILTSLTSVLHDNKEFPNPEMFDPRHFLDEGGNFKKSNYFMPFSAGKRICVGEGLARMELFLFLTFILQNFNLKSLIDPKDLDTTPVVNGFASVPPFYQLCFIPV", "test": "Inhibition of CYP2C19 (unknown origin) using S-mephenytoin as substrate", "type": "ADME"}, "[1]": {"test": "Metabolic stability in rat liver microsome assessed as intrinsic clearance", "type": "ADME", "conditions": "microsomes"}, "[2]": {"test": "Metabolic stability in rat liver microsome assessed as half life", "type": "ADME", "conditions": "liver microsomes"}, "Cytochrome P450 3A4": {"target": "Cytochrome P450 3A4 (Homo sapiens, UniProt P08684)", "sequence (P08684 whole entry)": "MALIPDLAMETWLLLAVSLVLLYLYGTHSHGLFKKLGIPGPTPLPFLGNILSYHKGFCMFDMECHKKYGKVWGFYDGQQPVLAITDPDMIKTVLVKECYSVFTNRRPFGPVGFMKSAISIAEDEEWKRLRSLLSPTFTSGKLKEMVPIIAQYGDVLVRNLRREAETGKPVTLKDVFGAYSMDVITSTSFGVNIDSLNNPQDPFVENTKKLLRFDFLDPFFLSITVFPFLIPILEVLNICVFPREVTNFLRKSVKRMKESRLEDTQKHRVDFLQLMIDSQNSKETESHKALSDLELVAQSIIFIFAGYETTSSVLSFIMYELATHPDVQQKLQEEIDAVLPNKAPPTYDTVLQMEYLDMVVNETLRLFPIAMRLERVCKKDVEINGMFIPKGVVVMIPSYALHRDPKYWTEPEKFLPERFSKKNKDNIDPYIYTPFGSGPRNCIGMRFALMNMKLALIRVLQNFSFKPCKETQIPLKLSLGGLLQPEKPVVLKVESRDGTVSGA", "test": "Inhibition of CYP3A4 (unknown origin) using Midazolam as substrate", "type": "ADME"}, "[3]": {"target": "T1, Broad substrate specificity ATP-binding cassette transporter ABCG2 (Homo sapiens, UniProt Q9UNQ0)", "T1 sequence (Q9UNQ0 whole entry)": "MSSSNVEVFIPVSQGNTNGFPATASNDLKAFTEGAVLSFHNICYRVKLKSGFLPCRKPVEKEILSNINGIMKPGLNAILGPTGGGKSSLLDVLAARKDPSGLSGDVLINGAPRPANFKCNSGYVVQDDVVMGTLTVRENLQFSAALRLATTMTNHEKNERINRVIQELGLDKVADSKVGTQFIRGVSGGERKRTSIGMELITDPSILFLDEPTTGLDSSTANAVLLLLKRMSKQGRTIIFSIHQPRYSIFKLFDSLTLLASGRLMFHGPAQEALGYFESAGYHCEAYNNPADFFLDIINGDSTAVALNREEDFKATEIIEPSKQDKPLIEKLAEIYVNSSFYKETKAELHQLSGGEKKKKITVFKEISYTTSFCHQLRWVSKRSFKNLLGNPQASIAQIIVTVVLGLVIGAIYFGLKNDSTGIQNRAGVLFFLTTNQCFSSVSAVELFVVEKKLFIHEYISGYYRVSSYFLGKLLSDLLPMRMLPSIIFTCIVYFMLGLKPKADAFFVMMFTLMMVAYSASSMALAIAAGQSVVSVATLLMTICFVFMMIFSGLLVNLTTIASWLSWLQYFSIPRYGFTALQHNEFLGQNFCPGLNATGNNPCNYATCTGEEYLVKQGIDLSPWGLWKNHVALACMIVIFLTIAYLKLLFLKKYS", "test": "Inhibition of BCRP (unknown origin) ATPase activity"}, "P-gp (ABCB1) [4]": {"target": "T2, P-gp (ABCB1) (Homo sapiens, UniProt P08183)", "T2 sequence (P08183 whole entry)": "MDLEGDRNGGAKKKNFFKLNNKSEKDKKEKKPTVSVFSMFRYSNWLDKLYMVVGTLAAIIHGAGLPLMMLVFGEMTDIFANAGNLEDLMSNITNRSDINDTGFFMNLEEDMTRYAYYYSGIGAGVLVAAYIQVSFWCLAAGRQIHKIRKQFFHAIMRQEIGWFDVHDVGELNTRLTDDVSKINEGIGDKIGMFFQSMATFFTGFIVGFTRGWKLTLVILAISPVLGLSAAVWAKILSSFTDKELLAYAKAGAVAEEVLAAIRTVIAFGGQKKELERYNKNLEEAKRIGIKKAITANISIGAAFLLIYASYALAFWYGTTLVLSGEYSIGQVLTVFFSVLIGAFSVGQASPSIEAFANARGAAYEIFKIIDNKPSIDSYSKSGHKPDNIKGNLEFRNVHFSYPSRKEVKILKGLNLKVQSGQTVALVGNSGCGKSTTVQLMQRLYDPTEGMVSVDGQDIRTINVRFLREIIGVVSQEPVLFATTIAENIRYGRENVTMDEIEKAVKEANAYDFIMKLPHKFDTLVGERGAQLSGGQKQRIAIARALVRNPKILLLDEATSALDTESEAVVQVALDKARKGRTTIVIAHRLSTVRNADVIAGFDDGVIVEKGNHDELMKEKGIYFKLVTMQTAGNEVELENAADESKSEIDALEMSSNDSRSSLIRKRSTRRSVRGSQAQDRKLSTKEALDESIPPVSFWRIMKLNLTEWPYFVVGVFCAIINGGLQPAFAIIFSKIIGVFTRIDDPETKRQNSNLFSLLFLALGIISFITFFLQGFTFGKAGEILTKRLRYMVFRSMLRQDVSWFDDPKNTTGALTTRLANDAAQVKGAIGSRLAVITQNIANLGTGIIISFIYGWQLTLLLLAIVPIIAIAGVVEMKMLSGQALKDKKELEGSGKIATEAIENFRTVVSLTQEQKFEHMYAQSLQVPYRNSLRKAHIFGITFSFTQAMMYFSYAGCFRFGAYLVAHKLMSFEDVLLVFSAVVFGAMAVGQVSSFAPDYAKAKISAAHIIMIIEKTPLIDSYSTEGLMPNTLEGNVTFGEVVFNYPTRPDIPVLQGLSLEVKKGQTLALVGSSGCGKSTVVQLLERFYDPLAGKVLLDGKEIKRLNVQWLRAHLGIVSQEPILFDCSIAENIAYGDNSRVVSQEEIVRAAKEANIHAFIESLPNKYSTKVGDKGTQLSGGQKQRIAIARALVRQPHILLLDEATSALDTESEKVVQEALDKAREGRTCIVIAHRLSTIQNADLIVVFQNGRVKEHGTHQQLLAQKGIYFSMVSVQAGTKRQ", "test": "Inhibition of P-gp in human Caco-2 cells at 0.01 uM in presence of paclitaxel relative to control", "type": "cell-based", "conditions": "Caco-2, probe paclitaxel"}, "[5]": {"test": "Metabolic stability in human liver microsome assessed as half life", "type": "ADME", "conditions": "liver microsomes"}, "P-gp (ABCB1) [6]": {"target": "T2, P-gp (ABCB1)", "test": "Inhibition of P-gp in human Caco-2 cells at 5 uM in presence of paclitaxel relative to control", "type": "cell-based", "conditions": "Caco-2, probe paclitaxel"}, "[7]": {"test": "Inhibition of CYP3A4 in rat liver using luciferin-IPA as substrate microsome preincubated with compound for 10 mins followed by NADPH addition and measured after 5 mins", "type": "ADME, microsomes"}, "Cytochrome P450 2C9": {"target": "Cytochrome P450 2C9 (Homo sapiens, UniProt P11712)", "sequence (P11712 whole entry)": "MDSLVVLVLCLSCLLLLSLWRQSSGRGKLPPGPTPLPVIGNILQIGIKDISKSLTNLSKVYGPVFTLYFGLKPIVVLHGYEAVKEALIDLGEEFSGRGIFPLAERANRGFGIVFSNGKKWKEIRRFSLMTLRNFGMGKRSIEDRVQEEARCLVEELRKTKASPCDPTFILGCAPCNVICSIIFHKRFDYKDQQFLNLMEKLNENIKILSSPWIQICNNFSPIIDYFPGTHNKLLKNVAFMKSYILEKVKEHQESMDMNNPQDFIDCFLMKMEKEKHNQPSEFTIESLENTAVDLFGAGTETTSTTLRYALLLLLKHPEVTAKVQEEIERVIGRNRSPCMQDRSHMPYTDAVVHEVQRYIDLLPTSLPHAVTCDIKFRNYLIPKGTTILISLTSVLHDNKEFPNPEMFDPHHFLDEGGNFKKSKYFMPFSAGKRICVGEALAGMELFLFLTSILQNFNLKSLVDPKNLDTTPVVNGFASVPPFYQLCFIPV", "test": "Inhibition of CYP2C9 (unknown origin) using Diclofenac as substrate", "type": "ADME"}, "[8]": {"target": "T3, ATP-dependent translocase ABCB1 (Homo sapiens, UniProt P08183)", "T3 sequence (P08183 whole entry)": "as the sequence (P08183 whole entry) above", "test": "Inhibition of P-gp (unknown origin) ATPase activity"}, "[9]": {"target": "T3, ATP-dependent translocase ABCB1", "test": "Inhibition of P-gp in human Caco-2 cells in presence of paclitaxel", "type": "cell-based"}, "Cytochrome P450 1A2": {"target": "T4, Cytochrome P450 1A2 (Homo sapiens, UniProt P05177)", "T4 sequence (P05177 whole entry)": "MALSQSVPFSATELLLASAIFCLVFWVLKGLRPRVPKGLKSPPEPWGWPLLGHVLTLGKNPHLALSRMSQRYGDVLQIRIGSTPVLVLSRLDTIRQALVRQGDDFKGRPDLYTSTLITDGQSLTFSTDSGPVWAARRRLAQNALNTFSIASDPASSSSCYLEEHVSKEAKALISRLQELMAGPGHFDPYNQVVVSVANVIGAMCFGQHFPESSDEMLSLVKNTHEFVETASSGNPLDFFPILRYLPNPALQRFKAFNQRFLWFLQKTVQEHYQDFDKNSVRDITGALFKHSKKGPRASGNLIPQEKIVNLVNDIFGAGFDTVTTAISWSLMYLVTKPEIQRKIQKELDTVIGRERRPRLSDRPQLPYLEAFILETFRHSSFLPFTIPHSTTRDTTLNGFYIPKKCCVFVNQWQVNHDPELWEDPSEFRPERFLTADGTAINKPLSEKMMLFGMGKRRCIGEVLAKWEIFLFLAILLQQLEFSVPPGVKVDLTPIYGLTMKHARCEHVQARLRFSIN", "test": "Inhibition of CYP1A2 (unknown origin) using Phenacetin as substrate", "type": "ADME"}, "MES-SA/Dx5": {"test_system": "MES-SA/Dx5", "test": "Cytotoxicity against human MES-SA/Dx5 cells at 1.28 uM incubated for 3 days by MTT assay relative to control", "type": "functional", "conditions": "time 3 day"}, "[10]": {"test": "C0 in CD-1 mouse at 5 mg/kg, iv measured upto 8 hrs by LC-MS/MS analysis", "type": "ADME, organism-based", "conditions": "in vivo"}, "[11]": {"test": "Inhibition of CYP3A4 in monkey liver using luciferin-IPA as substrate microsome preincubated with compound for 10 mins followed by NADPH addition and measured after 5 mins", "type": "ADME, microsomes, Macaca mulatta"}, "[12]": {"test": "Metabolic stability in mouse liver microsome assessed as intrinsic clearance", "type": "ADME", "conditions": "microsomes"}, "[13]": {"test": "Apparent permeability across basolateral to apical side in human Caco-2 cells assessed as drug recovery", "type": "ADME, cell-based", "conditions": "read-out: Drug recovery"}, "Cytochrome P450 2B6": {"target": "T5, Cytochrome P450 2B6 (Homo sapiens, UniProt P20813)", "T5 sequence (P20813 whole entry)": "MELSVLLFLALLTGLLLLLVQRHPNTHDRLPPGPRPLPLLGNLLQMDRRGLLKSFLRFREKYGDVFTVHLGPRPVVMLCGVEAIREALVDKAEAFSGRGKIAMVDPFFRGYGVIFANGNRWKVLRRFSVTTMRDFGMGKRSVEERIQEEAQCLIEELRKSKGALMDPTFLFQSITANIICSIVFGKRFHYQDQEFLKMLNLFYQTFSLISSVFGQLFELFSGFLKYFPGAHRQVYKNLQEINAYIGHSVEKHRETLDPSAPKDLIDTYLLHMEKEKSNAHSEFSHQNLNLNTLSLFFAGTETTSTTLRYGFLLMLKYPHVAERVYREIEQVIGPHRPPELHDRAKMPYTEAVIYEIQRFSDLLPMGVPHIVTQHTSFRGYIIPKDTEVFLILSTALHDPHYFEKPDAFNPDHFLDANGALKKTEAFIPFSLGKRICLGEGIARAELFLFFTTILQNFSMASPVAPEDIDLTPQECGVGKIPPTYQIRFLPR", "test": "Inhibition of CYP2B6 (unknown origin) using Bupropion as substrate", "type": "ADME"}, "[14]": {"test": "Equilibrium solubility of compound in PBS at pH 7.4", "type": "physicochemical", "conditions": "PBS"}, "[15]": {"test": "Apparent permeability of compound across basolateral to apical side in human Caco-2 cells", "type": "ADME, cell-based"}, "[16]": {"target": "T3, ATP-dependent translocase ABCB1", "test": "Inhibition of P-gp in human MES-SA/Dx5 cells", "type": "cell-based"}, "Cytochrome P450 2D6": {"target": "Cytochrome P450 2D6 (Homo sapiens, UniProt P10635)", "sequence (P10635 whole entry)": "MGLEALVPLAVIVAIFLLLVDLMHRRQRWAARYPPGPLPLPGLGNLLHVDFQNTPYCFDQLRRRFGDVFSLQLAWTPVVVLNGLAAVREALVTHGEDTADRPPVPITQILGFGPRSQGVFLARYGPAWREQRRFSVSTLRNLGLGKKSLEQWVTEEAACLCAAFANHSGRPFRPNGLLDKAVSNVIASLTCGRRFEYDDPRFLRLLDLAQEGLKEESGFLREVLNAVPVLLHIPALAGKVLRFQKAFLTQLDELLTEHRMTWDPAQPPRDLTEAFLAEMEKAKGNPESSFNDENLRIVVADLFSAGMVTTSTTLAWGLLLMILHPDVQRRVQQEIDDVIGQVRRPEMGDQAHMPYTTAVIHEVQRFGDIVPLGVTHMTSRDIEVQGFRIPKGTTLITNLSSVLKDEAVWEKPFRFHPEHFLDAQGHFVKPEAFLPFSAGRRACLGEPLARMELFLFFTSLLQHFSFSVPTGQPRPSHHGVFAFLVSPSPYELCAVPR", "test": "Inhibition of CYP2D6 (unknown origin) using Bufuralol as substrate", "type": "ADME"}, "[17]": {"test": "Apparent permeability of compound across apical to basolateral side in human Caco-2 cells", "type": "ADME, cell-based"}, "[18]": {"test": "Apparent permeability across apical to basolateral side in human Caco-2 cells assessed as drug recovery", "type": "ADME, cell-based", "conditions": "read-out: Drug recovery"}, "[19]": {"test": "Tlast in CD-1 mouse at 5 mg/kg, iv measured upto 8 hrs by LC-MS/MS analysis", "type": "ADME, organism-based", "conditions": "in vivo"}}, "data": [{"smiles": "COc1cc(NC(=O)c2cc(=O)c3ccccc3o2)c(C(=O)Nc2ccc(C3CCN(Cc4cccc(-n5ccnc5)c4)CC3)cc2)cc1OC", "values": [{"measurement": "IC50", "setting": "Cytochrome P450 2C19", "result": 39000, "unit": "nM"}, {"measurement": "CLH", "setting": "[1]", "result": 95, "unit": "µL/min/mg"}, {"measurement": "half-life", "setting": "[2]", "result": 15, "unit": "min"}, {"measurement": "IC50", "setting": "Cytochrome P450 3A4", "result": 140, "unit": "nM"}, {"measurement": "IC50", "setting": "[3]", "result": "> 1250", "unit": "nM"}, {"measurement": "inhibition at 0.01 µM", "setting": "P-gp (ABCB1) [4]", "result": 54, "unit": "%"}, {"measurement": "half-life", "setting": "[5]", "result": 4.4, "unit": "min"}, {"measurement": "inhibition at 5 µM", "setting": "P-gp (ABCB1) [6]", "result": 99, "unit": "%"}, {"measurement": "IC50", "setting": "[7]", "result": 296, "unit": "nM"}, {"measurement": "IC50", "setting": "Cytochrome P450 2C9", "result": 36000, "unit": "nM"}, {"measurement": "IC50", "setting": "[8]", "result": 21, "unit": "nM"}, {"measurement": "IC50", "setting": "[9]", "result": 9, "unit": "nM"}, {"measurement": "IC50", "setting": "Cytochrome P450 1A2", "result": "> 100000", "unit": "nM"}, {"measurement": "Activity", "setting": "MES-SA/Dx5", "result": 0, "unit": "%"}, {"measurement": "C0 at 8 h", "setting": "[10]", "result": 6540, "unit": "ng/mL"}, {"measurement": "IC50", "setting": "[11]", "result": 140, "unit": "nM"}, {"measurement": "CLH", "setting": "[12]", "result": 38, "unit": "µL/min/mg"}, {"measurement": "recovery", "setting": "[13]", "result": 82, "unit": "%"}, {"measurement": "IC50", "setting": "Cytochrome P450 2B6", "result": 36000, "unit": "nM"}, {"measurement": "solubility thermodynamic", "setting": "[14]", "result": 0.57, "unit": "µM"}, {"measurement": "Papp B→A", "setting": "[15]", "result": "< 0.08", "unit": "×10⁻⁶ cm/s"}, {"measurement": "EC50", "setting": "[16]", "result": 28, "unit": "nM"}, {"measurement": "IC50", "setting": "Cytochrome P450 2D6", "result": 69000, "unit": "nM"}, {"measurement": "Papp A→B", "setting": "[17]", "result": "< 0.06", "unit": "×10⁻⁶ cm/s"}, {"measurement": "recovery", "setting": "[18]", "result": 82, "unit": "%"}, {"measurement": "Tlast", "setting": "[19]", "result": 4.8, "unit": "h"}]}]}
